According to patent US9309247B2, “2-substituted imidazo[4,5-D]phenanthroline derivatives and their use in the treatment of cancer” (Aptose Biosciences Inc., priority 2013, dated 2016):

Tests used:
[1] = system: colon carcinoma SW-620 cells; assay: Colon carcinoma (SW-620) xenograft model; format: in vivo, CD-1 female nude mice; details: vs vehicle-treated control, FIG. 3
Method: (§1) The ability of compound 1 to inhibit colon tumour growth in vivo was tested as follows. CD-1 female nude mice (7 mice per treatment group, 6-7 weeks) were injected […] with human colon adenocarcinoma cells HT-29 cells (3×10^6 cells in 0.1 ml PBS). Treatment of the mice with vehicle or 50 mg/kg/d of […] was initiated 5 days post-inoculation (size of tumours=20-40 mm^3) for 7-day cycles of five days followed by a 2 day break for 5 weeks. The size of the tumours was measured over the course of the experiment using calipers, and the weight of the tumours was measured after the animals were sacrificed.
Similar tests were conducted with colon carcinoma KM-12 cells and colon carcinoma SW-620 cells.

EL4 (mouse, lymphoma) = assay: Cell growth inhibition assay, EL4; format: cell-based; details: five days of incubation, XTT; read-out: IC50 EL4 (ms)
Method: (§2) In this study, compounds 1-8 were screened in vitro against a panel of four mouse lymphoma cell lines and two human lymphoma cell line for cell growth inhibition activity. Following treatment, half maximal inhibitory concentrations (IC50) were determined with the objective of selecting the most efficacious compounds for evaluation of in vitro absorption, distribution, metabolism, and excretion (ADME) screening.
(§3) Similarly, human Burkitt's lymphoma Ramos cells (ATCC CRL-1596) were grown in suspension in Roswell Park Memorial Institute (RPMI) 1640 medium supplemented with 10% fetal bovine serum (FBS), 10 mM HEPES KOH pH 7.4, and 2 mM sodium pyruvate. Mouse P388D1 (ATCC CCL-46) and WR19L (ATCC TIB-52) cells were grown in suspension in Dulbecco's Modified Eagle Medium (DMEM) with 10% fetal bovine serum (FBS), 10 mM HEPES, and 2 mM sodium pyruvate. Mouse WEHI231 (ATCC CRL-1702) and EL4 (ATCC TIB-39) cells were grown in suspension in DMEM with 10% fetal bovine serum (FBS), 10 mM HEPES KOH pH 7.4, 2 mM sodium pyruvate, and 0.05 mM β-mercaptoethanol. All cells were maintained at 37° C. in an atmosphere of 5% CO2 in air. Logarithmically growing cells were routinely sub-cultured twice weekly. Briefly, cells were collected by centrifugation, resuspended in pre-warmed media, and diluted 1:10 into a 75 cm^2 flask.
(§4) Cells were subcultured and 4×10^3 cells (in 50 μL) were transferred to each well in a Falcon 96-well tissue culture plate. Exemplary compounds were dissolved in pure dimethyl sulphoxide (DMSO) at a concentration of 10 mM. From this 10 mM stock solution, 12 successive serial dilutions were made in DMSO (2.5 fold dilutions), ranging from 0.52 μM to 10 mM. Using these stock dilutions, 5 μL of each were added to 500 μL of media, and 50 μL of this was added to the cells. The final concentrations being tested ranged from 0.0026 μM to 50 μM. Each concentration was tested in triplicate, and DMSO and untreated cells were also included as controls. After five days of incubation with the compounds, cell viability was determined using the XTT cell proliferation kit (Roche, Cat. No. 11 465 015 001). Following the XTT protocol, 4.5-24 hours after addition of the reagent, the plates were read in a μQuant 96-well plate spectrophotometer (Biotek Instruments Inc.) and the results analyzed to determine the IC50.

[2] = system: human colon adenocarcinoma cells HT-29; assay: Colon carcinoma (HT-29) xenograft model; format: in vivo, CD-1 female nude mice; details: 50 mg/kg/d, five days on, 2 day break, 5 weeks, vs vehicle-treated control, FIG. 1
Method: as §1

[3] = system: pancreatic cancer (BxPC-3); assay: Pancreatic cancer (BxPC-3) xenograft model; format: in vivo, CD-1 female nude mice; details: pancreatic carcinoma BxPC-3; vs vehicle-treated control; FIG. 5
Method: as §1
(§5) The ability of compound 1 to inhibit renal cell carcinoma growth (see FIG. 4), to inhibit pancreatic carcinoma growth (FIG. 5), to inhibit large-cell lung carcinoma cell growth (FIG. 6), and to inhibit Glioblastoma cell growth (FIG. 7) was also tested following the general procedure as discussed above.

[4] = system: non small cell lung cancer (H460); assay: Non small cell lung cancer (H460) xenograft model; format: in vivo, CD-1 female nude mice; details: large-cell lung carcinoma H460; vs vehicle-treated control; FIG. 6
Method: as §1, §5

[5] = system: non-small cell lung cancer cells HOP-92; assay: XTT cell proliferation assay, HOP-92; format: cell-based, human; details: 5 days incubation, read-out: Antiproliferative activity, NSCLC HOP-92
Method: [The procedure below names another cell line; the source lists this cell line under the same test.] (§6) Exemplary compounds 1-8 were tested for anti-cancer activity in vitro using human renal cancer cells (ACHN and CAK-1), human pancreatic cells (BXPC3 and SU-86-86), human prostate cancer cell (DU14), human colon carcinoma cells (HT-29 and KM-12), leukemia cells (HL60), brain cancer/tumour cells (SK-A-AS, U87-MG), and human non-small cell lung cancer cells (H460). Compounds 1-8 are the specific embodiments of Formula (I) and Formula (IV) as described above in this application.
(§7) The cells were maintained as a monolayer in a growth medium; McCoy's 5A modified medium (Sigma, St. Louis, Mo.), supplemented with 2 mM L-glutamine (Gibco, Grand Island, N.Y.), 10% fetal bovine serum (FBS) (Multicell, WISENT Inc. St-Bruno, QC), antibiotic-antimycotic (Multicell), at 37° C. in a 5% CO2-humidified incubator. Cells were transferred onto 150 mm tissue culture plates and grown until sub-confluency (70-80%) prior to their use. The in vitro antiproliferative activity of compounds was evaluated by incubating the cells with varying concentrations of exemplary compounds as shown in Table 1 for 5 days. The efficacy of these compounds in this cell proliferation assay was measured based in the ability of live cells to reduce the tetrazolium salt XTT to orange colored compounds of formazan (XTT cell proliferation kit IT, Roche Applied Science, Montreal, QC).

[6] = system: panel of human and mouse lymphoma cell lines; assay: Cell growth inhibition, whole lymphoma panel (mean IC50, mean rank); format: cell-based; details: mean over six lymphoma cell lines
Method: as §2, §4
In vitro potency was assessed using eight exemplary compounds against a panel of human and mouse lymphoma cell lines (Table 4). […] To compare the efficacy of the compounds in cell growth inhibition across the entire panel of cell lines screened, the eight compounds were ranked according to efficacy against each cell line with a numerical value of one indicating most efficacious (lowest IC50 value) and eight being the least efficacious (highest IC50 value).

P388D1 (mouse, lymphoma) = assay: Cell growth inhibition assay, P388D1; format: cell-based; details: five days of incubation, XTT; read-out: IC50 P388D1 (ms)
Method: as §2, §3, §4

[7] = system: human colon carcinoma cells KM12; assay: XTT cell proliferation assay, KM12; format: cell-based; details: 5 days incubation, read-out: Antiproliferative activity, Colon KM12
Method: as §6, §7

[8] = system: human prostate cancer cell DU14; assay: XTT cell proliferation assay, DU14; format: cell-based; details: 5 days incubation, read-out: Antiproliferative activity, Pros. DU14
Method: as §6, §7

Structure (SMILES): FC1(F)Oc2ccc(-c3nc4c5cccnc5c5ncccc5c4[nH]3)cc2O1 [Compound 1]
- inhibition of tumour growth, as measured by tumour size [1]: able to inhibit tumour growth
- IC50 (EL4 (mouse, lymphoma)): 0.483 µM
- inhibition of tumour growth, as measured by tumour size [2]: able to inhibit tumour growth
- inhibition of tumour growth, as measured by tumour size [3]: able to inhibit tumour growth
- inhibition of tumour growth, as measured by tumour size [4]: able to inhibit tumour growth
- IC50 [5]: 0.16 µM
- IC50 [6]: 0.209 µM
- IC50 (P388D1 (mouse, lymphoma)): 0.37 µM
- IC50 [7]: 0.33 µM
- IC50 [8]: 0.17 µM
